# Experimental data: patent publication US6268391A, “Benzylidene-1,3-dihydro-indol-2-one derivatives a receptor tyrosine kinase inhibitors, particularly of Raf kinases” (Glaxo Wellcome Inc., priority 1997, dated 2001)
# Like-named read-outs stand apart in the source and are kept apart here.
# Columns and labels:
# [1] = tested on: HT29 (human colon carcinoma cell line); test: Cell Based Efficacy (MTT Assay), HT29; conditions: HT-29, 72 hours with compound, 50% inhibitory concentration
# Method: (§1) The potency of compounds of the invention are tested for their ability to inhibit cell proliferation and cell viability. The metabolic conversion of 3-(4,5-dimethylthiazol-2-yl)-2,5-diphenyltetrazolium bromide (MTT, Sigma #M2128) to a reduced form is a commonly used measure of cellular viability. Following is the procedure:
# (§2) Cells are maintained in 75 cm^2 tissue culture flasks until ready for use. The cells are grown and plated for the assay in Dulbecco's modified Eagle's media containing 10% fetal bovine serum. For example, the following cell lines can be used: a) human foreskin fibroblasts (HFF), b) HT29 (human colon carcinoma cell line), c) MDA-MB-468 (human breast carcinoma cell line), d) RKO (human colon adenocarcinoma cell line), e) SW620 (human colon carcinoma cell line), f) A549 (human lung carcinoma cell line), and g) MIA PACA (human pancreatic carcinoma cell line). Cells are maintained at 37° C. in 10% CO2, 90% humidified air. Cells are plated in 96-well tissue culture plates at the densities listed below. 100 μL of cell suspension is added to each well of the 96-well plate except the top row of the plate which contains no cells and serves as a reference for the spectrophotometer.
# (§3) Cells are incubated overnight in Dulbecco's modified Eagle's media containing 10% fetal bovine serum at 37° C. in 10% CO2, 90% humidified air prior to dosing. Cells are dosed in 10 sequential 3-fold dilutions starting at 30 uM depending upon the solubility of the compound. Compounds with solubilities of less than 30 uM are dosed at the highest soluble concentration. Stock solutions of compounds are made in 100% dimethyl sulfoxide (DMSO). Stock solutions are diluted in Dulbecco's modified Eagle's media containing 100 ug/mL gentamicin and 0.3 to 0.6% DMSO at the twice the highest concentration to be placed on the cells. If compounds have been dissolved in DMSO the final concentration of DMSO on the cells is kept below 0.3%. 3-fold serial dilutions are performed on each compound to prepare 10 concentrations of the compound for dosing. 100 μL of diluted compound is added to the 100 μL of media currently on the dish. For each concentration of compound, 2-4 replicate wells are prepared.
# (§4) Cells are returned to incubator and allowed to proliferate in the presence of compound for 72 hours before addition of MTT. MTT is prepared in phosphate buffered saline (Irvine Scientific #9240) at a concentration of 2mg/mL. 50 μL per well of MTT solution is added to the 200 μL of media to yield a final concentration of 0.4 mg/mL and plates are returned to the incubator for 4 hours. After 4 hours incubation the media, compound and MTT mixture is aspirated from the plates and 100 μL of 100% DMSO is added to each well in addition to 25 μL of Sorenson's Buffer (0.1M glycine, 0.1M NaCl, pH 10.5). Quantitation of metabolic reduction of MTT in each plate is performed by reading optical density at 570 nm wavelength on a Molecular Devices UVmax microplate reader. Growth inhibition curves and 50% inhibitory concentrations are determined using Microsoft Excel.
# (§5) Table 4 illustrates the inhibitory activity of compounds of the present invention against a representative kinase (raf) and the cytotoxicity of compounds of the present invention against a broad range of human tumor cell lines.
# Human cRaf1 = biological target: T1, Human cRaf1 (Homo sapiens, UniProt P04049); test: Raf kinase assay (cRaf1 assay / Raf/MEK cascade assay); type: biochemical
# T1 construct: poly-histidine (C); made in house
# PC-3 (prostate) = test: Cell Based Efficacy (MTT Assay), PC-3; conditions: Homo sapiens; 72 hours with compound; 50% inhibitory concentration
# Method: as §1, §2, §3, §4, §5
# [2] = tested on: MIA PACA (human pancreatic carcinoma cell line); test: Cell Based Efficacy (MTT Assay), MIA PACA; conditions: MIA PaCa-2, 72 hours with compound, 50% inhibitory concentration
# Method: as §1, §2
# MIA PACA 3000 cells/well
# as §3, §4, §5
# [3] = tested on: SW620 (human colon carcinoma cell line); test: Cell Based Efficacy (MTT Assay), SW620; conditions: SW-620, 72 hours with compound, 50% inhibitory concentration
# Method: as §1
# as §2, with “spectrophotometer. […]” for “spectrophotometer.”
# as §3, §4, §5
# [4] = tested on: MDA-MB-468 (human breast carcinoma cell line); test: Cell Based Efficacy (MTT Assay), MDA-MB-468; conditions: 72 hours with compound, 50% inhibitory concentration
# Method: as §1
# as §2, with “spectrophotometer. […]” for “spectrophotometer.”
# as §3, §4, §5
# [5] = Table 3, read-out: Raf Kinase activity
# T1 sequence (P04049 whole entry): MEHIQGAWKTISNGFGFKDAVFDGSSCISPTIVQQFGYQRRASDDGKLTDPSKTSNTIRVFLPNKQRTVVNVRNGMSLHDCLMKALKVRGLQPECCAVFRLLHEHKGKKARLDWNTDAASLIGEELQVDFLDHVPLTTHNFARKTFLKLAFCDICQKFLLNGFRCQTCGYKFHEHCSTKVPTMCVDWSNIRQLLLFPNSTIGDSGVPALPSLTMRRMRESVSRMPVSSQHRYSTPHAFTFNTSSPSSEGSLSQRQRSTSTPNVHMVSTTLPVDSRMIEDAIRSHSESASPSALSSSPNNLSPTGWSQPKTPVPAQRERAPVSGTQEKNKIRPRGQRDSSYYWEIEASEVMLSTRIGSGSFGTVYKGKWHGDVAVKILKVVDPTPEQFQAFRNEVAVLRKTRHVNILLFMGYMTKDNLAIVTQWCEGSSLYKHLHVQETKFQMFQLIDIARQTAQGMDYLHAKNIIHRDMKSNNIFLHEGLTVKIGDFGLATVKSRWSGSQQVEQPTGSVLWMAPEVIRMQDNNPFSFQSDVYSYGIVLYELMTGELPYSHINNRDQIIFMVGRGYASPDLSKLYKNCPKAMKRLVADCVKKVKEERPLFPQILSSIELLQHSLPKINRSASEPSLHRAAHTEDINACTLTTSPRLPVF
compound,measurement,setting,value
"N#Cc1ccc2c(c1)C(=Cc1cc(Br)c(O)c(Br)c1)C(=O)N2 [Example 1, 3-(3,5-Dibromo-4-hydroxy-benzylidine)-2-oxo-2,3-dihydro-1H-indole-5-carbonitrile]",IC50,[1],5 to 50 µM
same,IC50,Human cRaf1; [5],< 1 µM
same,IC50,"Human cRaf1; Table 4, read-out: Raf",< 0.5 µM
same,IC50,PC-3 (prostate),5 to 50 µM
same,IC50,[2],5 to 50 µM
same,IC50,[3],5 to 50 µM
same,IC50,[4],5 to 50 µM
"CCOc1cc(C=C2C(=O)Nc3ccc(C(=O)c4ccccc4)cc32)cc(Br)c1O [Example 8, 5-Benzoyl-3-(3-bromo-5-ethoxy-4-hydroxy-benzylidene)-1,3-dihydro-indol-2-one]",IC50,[1],5 to 50 µM
same,IC50,Human cRaf1; [5],< 1 µM
same,IC50,"Human cRaf1; Table 4, read-out: Raf",< 0.5 µM
same,IC50,PC-3 (prostate),5 to 50 µM
same,IC50,[2],5 to 50 µM
same,IC50,[3],5 to 50 µM
same,IC50,[4],5 to 50 µM
"NCc1ccc2c(c1)C(=Cc1cc(Br)c(O)c(Br)c1)C(=O)N2 [Example 25, 5-Aminomethyl-3-(3,5-dibromo-4-hydroxy-benzylidene)-1,3-dihydro-indol-2-one]",IC50,[1],5 to 50 µM
same,IC50,Human cRaf1; [5],1 to 10 µM
same,IC50,"Human cRaf1; Table 4, read-out: Raf",0.5 to 5 µM
same,IC50,PC-3 (prostate),5 to 50 µM
same,IC50,[2],5 to 50 µM
same,IC50,[3],5 to 50 µM
same,IC50,[4],5 to 50 µM
"O=C1Nc2ccc3ncccc3c2C1=Cc1cc(Br)c(O)c(Br)c1 [Example 119, 1-(3,5-Dibromo-4-hydroxy-benzylidene)-1,3-dihydro-pyrrolo[3,2-f]quinolin-2-one]",IC50,[1],0.5 to 5 µM
same,IC50,Human cRaf1; [5],< 1 µM
same,IC50,"Human cRaf1; Table 4, read-out: Raf",< 0.5 µM
same,IC50,PC-3 (prostate),0.5 to 5 µM
same,IC50,[2],0.5 to 5 µM
same,IC50,[3],0.5 to 5 µM
same,IC50,[4],0.5 to 5 µM
"O=C1Nc2ccc3ncsc3c2C1=Cc1cc(Br)c(O)c(Br)c1 [Example 121, 8-(3,5-Dibromo-4-hydroxy-benzylidine)-6,8-dihydro-1-thia-3,6-diaza-as-indacen-7-one]",IC50,[1],0.5 to 5 µM
same,IC50,Human cRaf1; [5],< 1 µM
same,IC50,"Human cRaf1; Table 4, read-out: Raf",< 0.5 µM
same,IC50,[2],5 to 50 µM
same,IC50,[3],0.5 to 5 µM
same,IC50,[4],0.5 to 5 µM
"Cn1nnc(-c2ccc3c(c2)C(=Cc2cc(Br)c(O)c(Br)c2)C(=O)N3)n1 [Example 143, 3-(3,5-Dibromo-4-hydroxy-benzylidene)-5-(2-methyl-2H-tetrazol-5-yl)-1,3-dihydro-indol-2-one]",IC50,[1],0.5 to 5 µM
same,IC50,Human cRaf1; [5],< 1 µM
same,IC50,"Human cRaf1; Table 4, read-out: Raf",< 0.5 µM
same,IC50,[3],0.5 to 5 µM
same,IC50,[4],0.5 to 5 µM
"CCN(CC)C(=O)Oc1c(Br)cc(C=C2C(=O)Nc3ccc(S(N)(=O)=O)cc32)cc1Br [Example 164, 4-[5-(Aminosulfonyl)-2-oxo-1,2-dihydro-3H-indol-3-ylidene]methyl-2,6-dibromophenyl N,N-diethylcarbamate]",IC50,Human cRaf1; [5],1 to 10 µM
"Cc1ccc2c3c(ccc2n1)NC(=O)C3=Cc1cc(Br)c(O)c(Br)c1 [Example 165, 1-[(3,5-Dibromo-4-hydroxyphenyl)methylidene]-7-methyl-1,3-dihydro-2H-pyrrolo[3,2-f]quinolin-2-one]",IC50,Human cRaf1; [5],< 1 µM
"Nc1ccc2c(c1)C(=Cc1cc(Br)c(O)c(Br)c1)C(=O)N2 [Example 166, 5-Amino-3-[(3,5-dibromo-4-hydroxyphenyl)methylidene]-1,3-dihydro-2H-indol-2-one]",IC50,Human cRaf1; [5],< 1 µM
"CCN(CC)C(=O)Oc1c(Br)cc(C=C2C(=O)Nc3ccc(C(=O)c4ccccc4)cc32)cc1Br [Example 167, 4-[(5-Benzoyl-2-oxo-1,2-dihydro-3H-indol-3-yildene)methyl]-2,6-dibromophenyl N,N-diethylcarbamate]",IC50,Human cRaf1; [5],10 to 100 µM
"CN(C)CCNC(=O)c1ccc2c(c1)C(=Cc1cc(Br)c(O)c(Br)c1)C(=O)N2 [Example 168, 3-[(3,5-Dibromo-4-hydroxyphenyl)methylidene]-N-(2-(dimethylamino)ethyl]-2-oxo-5-indolinecarboxamide]",IC50,Human cRaf1; [5],< 1 µM
"O=C1Nc2ccc(-c3cc(C(F)(F)F)cc(C(F)(F)F)c3)cc2C1=Cc1cc(Br)c(O)c(Br)c1 [Example 169, 5-[3,5-bis(Trifluoromethyl)phenyl]-3-[(3,5-dibromo-4-hydroxyphenyl)methylidene]-1,3-dihydro-2H-indol-2-one]",IC50,Human cRaf1; [5],< 1 µM
"O=C1Nc2ccc(-c3ccc(Cl)cc3Cl)cc2C1=Cc1cc(Br)c(O)c(Br)c1 [Example 171, 3-[(3,5-Dibromo-4-hydroxyphenyl)methylidene]-5-(2,4-dichlorophenyl)-1,3-dihydro-2H-indol-2-one]",IC50,Human cRaf1; [5],< 1 µM
"O=C1Nc2ccc(C(=O)NCCO)cc2C1=Cc1cc(Br)c(O)c(Br)c1 [Example 172, 3-[(3,5-Dibromo-4-hydroxyphenyl)methylidene]-N-(2-hydroxyethyl)-2-oxo-5-indolinecarboxamide]",IC50,Human cRaf1; [5],< 1 µM
"CN(C)c1nc(-c2ccc3c(c2)C(=Cc2cc(Br)c(O)c(Br)c2)C(=O)N3)cs1 [Example 173, 3-[(3,5-Dibromo-4-hydroxyphenyl)methylidene]-5-[2-(dimethylamino)-1,3-thiazol-4-yl]-1,3-dihydro-2H-indol-2-one]",IC50,Human cRaf1; [5],< 1 µM
"CS(=O)(=O)c1ccc2c(c1)C(=Cc1cc(Br)c(O)c(Br)c1)C(=O)N2 [Example 174, 3-[(3,5-Dibromo-4-hydroxyphenyl)methylidene]-5-(methylsulfonyl)-1,3-dihydro-2H-indol-2-one]",IC50,Human cRaf1; [5],< 1 µM
"NS(=O)(=O)c1ccc(-c2ccc3c(c2)C(=Cc2cc(Br)c(O)c(Br)c2)C(=O)N3)cc1 [Example 175, 4-3-[(3,5-Dibromo-4-hydroxyphenyl)methylidene]-2-oxo 2,3-dihydro-1H-indol-5-ylbenzenesulfonamide]",IC50,Human cRaf1; [5],< 1 µM
"C=Cc1ccc2c(c1)NC(=O)C2=Cc1cc(Br)c(O)c(Br)c1 [Example 176, 3-[(3,5-Dibromo-4-hydroxyphenyl)methylidene]-6-vinyl-1,3-dihydro-2H-indol-2-one]",IC50,Human cRaf1; [5],< 1 µM
"COC(=O)c1sccc1-c1ccc2c(c1)C(=Cc1cc(Br)c(O)c(Br)c1)C(=O)N2 [Example 177, Methyl 3-3-[(3,5 dibromo-4-hydroxyphenyl)methylidene]-2-oxo-2,3-dihydro-1H-indol-5-yl-2-thiophenecarboxylate]",IC50,Human cRaf1; [5],< 1 µM
"N#Cc1ccccc1-c1ccc2c(c1)C(=Cc1cc(Br)c(O)c(Br)c1)C(=O)N2 [Example 178, 2-3-[(3,5 Dibromo-4-hydroxyphenyl)methylidene]-2-oxo-2,3-dihydro-1H-indol-5-ylbenzonitrile]",IC50,Human cRaf1; [5],< 1 µM
"N#Cc1ccc2c(c1)NC(=O)C2=Cc1cc(Br)c(O)c(Br)c1 [Example 179, 3-[(3,5-Dibromo-4-hydroxyphenyl)methylidene]-2-oxo-6-indolinecarbonitrile]",IC50,Human cRaf1; [5],< 1 µM
"CN(C)CCCNc1nc(-c2ccc3c(c2)C(=Cc2cc(Br)c(O)c(Br)c2)C(=O)N3)cs1 [Example 180, 3-[(3,5-Dibromo-4-hydroxyphenyl)methylidene]-5-(2-[3-(dimethylamino)propyl]amino-1,3-thiazol-4-yl)-1,3-dihydro-2H-indol-2-one]",IC50,Human cRaf1; [5],< 1 µM
"O=C1Nc2ccc(C(=O)NCc3ccncc3)cc2C1=Cc1cc(Br)c(O)c(Br)c1 [Example 181, 3-[(3,5-dibromo-4-hydroxyphenyl)methylidene]-2-oxo-N-(4-pyridinylmethyl)-1,2-dihydro-3H-indole-5-carboxamide]",IC50,Human cRaf1; [5],< 1 µM
